Our source for the GI50 and TGI values is PubChem BioAssay (NCI).

Test systems include 786-0 renal; HS 578T breast; KM12 colon; LOX IMVI melanoma; MALME-3M melanoma; MDA-MB-435; MOLT-4 leukemia; NCI-H522 lung; SR leukemia; T-47D breast.
Holding throughout (assay): growth of human tumour cells (NCI), 48 h

Structures are written as SMILES.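 In this assay, cells in 96-well plates receive the compound at five concentrations for 48 hours. Endpoints are linearly interpolated between the surrounding concentrations. Here, GI50 denotes the concentration required for 50% inhibition of growth. The concentration for full growth arrest is given as TGI.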

On to `C=CC(=O)Nc1cccc(C)c1Nc1cc(-c2cccnc2Cc2c(C)c(OC)cc(OC)c2C)ncn1`, for which the GI50 in the assay with 786-0 renal was 10.2 µM; in the assay with HS 578T breast, 10.6 µM; in the assay on KM12 colon it was 13.4 µM; in the assay with LOX IMVI melanoma, 6.12 µM; in the assay with MALME-3M melanoma, 17.8 µM; in the assay on MDA-MB-435, 12.1 µM. Further, the GI50 with MOLT-4 leukemia was 3.6 µM; in the assay on NCI-H522 lung it was 11.6 µM; with SR leukemia, 4.41 µM; in the assay with T-47D breast, 7.92 µM. The TGI in the assay with 786-0 renal was found to be 39.6 µM; in the assay with HS 578T breast, 68.3 µM; with KM12 colon it was 34.2 µM; in the assay with LOX IMVI melanoma it was 19.8 µM; with MALME-3M melanoma, 49 µM; in the assay on MDA-MB-435, 31.3 µM. The TGI in the assay on MOLT-4 leukemia is more than 100 µM; with NCI-H522 lung, 36.2 µM; with SR leukemia, more than 100 µM; in the assay with T-47D breast, more than 100 µM.
On to `O=c1[nH]c2ccccc2nc1-c1c[nH]c2ccccc12`, for which the GI50 with 786-0 renal is more than 100 µM; in the assay with HS 578T breast it was 6.83 µM; in the assay on KM12 colon, 1.39 µM; with LOX IMVI melanoma, more than 100 µM; in the assay with MALME-3M melanoma it was 39.8 µM; with MDA-MB-435, more than 100 µM. The GI50 in the assay with MOLT-4 leukemia is more than 100 µM; in the assay on NCI-H522 lung it was more than 100 µM; with SR leukemia it was more than 100 µM; in the assay on T-47D breast it was 8.63 µM. In addition, the TGI in the assay with 786-0 renal, in the assay with HS 578T breast, in the assay on KM12 colon, in the assay on LOX IMVI melanoma, with MALME-3M melanoma and in the assay on MDA-MB-435 was more than 100 µM throughout. Also, the TGI in the assay on MOLT-4 leukemia, in the assay with NCI-H522 lung, with SR leukemia and in the assay on T-47D breast was more than 100 µM in each case.
For `CC(CN1CCN(CCOCCO)CC1)CN1c2ccccc2Sc2ccc(Cl)cc21` (stereo not given), the GI50 in the assay on 786-0 renal is 4.79 µM; in the assay with HS 578T breast, 3.44 µM; in the assay on KM12 colon, 2.78 µM; in the assay on LOX IMVI melanoma, 1.74 µM; with MALME-3M melanoma it was 1.75 µM; in the assay with MDA-MB-435, 2.06 µM. The GI50 in the assay with MOLT-4 leukemia is 2.49 µM; in the assay with NCI-H522 lung, 1.71 µM; in the assay with SR leukemia, 3.58 µM; in the assay with T-47D breast, 6.22 µM. Moreover, the TGI in the assay with 786-0 renal was 18 µM; in the assay on HS 578T breast it was 20.1 µM; in the assay on KM12 colon it was 8.21 µM; with LOX IMVI melanoma, 3.27 µM; with MALME-3M melanoma, 3.45 µM; with MDA-MB-435 it was 4.96 µM. Moreover, the TGI with MOLT-4 leukemia was 6.54 µM; with NCI-H522 lung, 3.36 µM; with SR leukemia it was 16.5 µM; with T-47D breast it was 22.6 µM.
For `COC(=O)Cn1c2c(c3c(O)cccc31)C(=O)c1ccccc1-2`, the GI50 in the assay on 786-0 renal, in the assay on HS 578T breast, with KM12 colon, in the assay with LOX IMVI melanoma, with MALME-3M melanoma and in the assay on MDA-MB-435 was more than 100 µM in each case. Further, the GI50 in the assay on MOLT-4 leukemia was more than 100 µM; in the assay with NCI-H522 lung, more than 100 µM; in the assay on SR leukemia, 28.8 µM; in the assay on T-47D breast, more than 100 µM. The TGI in the assay on 786-0 renal, in the assay with HS 578T breast, in the assay on KM12 colon, with LOX IMVI melanoma, with MALME-3M melanoma and in the assay with MDA-MB-435 was more than 100 µM in each case. Further, the TGI in the assay with MOLT-4 leukemia, with NCI-H522 lung, in the assay with SR leukemia and with T-47D breast was more than 100 µM each time.
With `Cc1cc2c3ccc(C)[n+](C)c3ccc2n1C`, the GI50 in the assay with 786-0 renal is 5 µM; in the assay on HS 578T breast it was 3.17 µM; in the assay on KM12 colon, 0.723 µM; in the assay on LOX IMVI melanoma it was 5.05 µM; in the assay with MALME-3M melanoma, 3.6 µM; in the assay with MDA-MB-435, 5.12 µM. For the same compound, the GI50 was 3.12 µM in the assay with MOLT-4 leukemia, 4.83 µM in the assay with NCI-H522 lung, 4.24 µM in the assay on SR leukemia and 4.76 µM with T-47D breast. In addition, the TGI in the assay with 786-0 renal was more than 100 µM; in the assay with HS 578T breast it was 24.3 µM; with KM12 colon, 3.46 µM; in the assay with LOX IMVI melanoma, 30.2 µM; with MALME-3M melanoma, 12.7 µM; with MDA-MB-435 it was 21.9 µM. Moreover, the TGI in the assay with MOLT-4 leukemia was 27.4 µM; with NCI-H522 lung, 29.3 µM; with SR leukemia, more than 100 µM; in the assay on T-47D breast it was 49 µM.
For `COc1cccc(C=Nc2cc(C)ccn2)c1O.COc1cccc(C=Nc2cc(C)ccn2)c1O.[Cu]`, the GI50 in the assay with 786-0 renal is 14.3 µM; with HS 578T breast, 19 µM; with KM12 colon it was 18.5 µM; in the assay on LOX IMVI melanoma, 8.53 µM; in the assay with MALME-3M melanoma it was 16.6 µM; in the assay on MDA-MB-435, 13.6 µM. For the same compound, the GI50 in the assay on MOLT-4 leukemia is 10.9 µM; with NCI-H522 lung, 22.3 µM; with SR leukemia, 18.6 µM; in the assay with T-47D breast, 12 µM. Also, the TGI worked out at 45.2 µM with 786-0 renal; 67.6 µM with HS 578T breast; 52.5 µM in the assay with KM12 colon; 30.9 µM in the assay with LOX IMVI melanoma; 31.7 µM in the assay on MALME-3M melanoma; 45.9 µM in the assay on MDA-MB-435. In addition, the TGI in the assay with MOLT-4 leukemia is 73.4 µM; in the assay on NCI-H522 lung, 52.3 µM; in the assay with SR leukemia it was more than 100 µM; with T-47D breast it was 33.1 µM.
In the case of `CN(C)CCCN1c2ccccc2CCc2ccc(Cl)cc21`, the GI50 with 786-0 renal was 5.5 µM; with HS 578T breast it was 10.6 µM; in the assay on KM12 colon it was 3.77 µM; in the assay with LOX IMVI melanoma, 2.31 µM; in the assay on MALME-3M melanoma, 2.03 µM; in the assay on MDA-MB-435 it was 2.35 µM. Further, the GI50 in the assay with MOLT-4 leukemia was 3.07 µM; with NCI-H522 lung it was 5.15 µM; with SR leukemia it was 2.08 µM; in the assay on T-47D breast it was 3.26 µM. For the same compound, the TGI was 19.2 µM with 786-0 renal; 77.1 µM in the assay with HS 578T breast; 13.6 µM in the assay with KM12 colon; 8.16 µM in the assay with LOX IMVI melanoma; 3.99 µM with MALME-3M melanoma; 6.91 µM with MDA-MB-435. Moreover, the TGI with MOLT-4 leukemia came to 11.1 µM; in the assay on NCI-H522 lung, 18.1 µM; with SR leukemia it was 5.11 µM; in the assay with T-47D breast it was 10.6 µM.
Turning to `C=C1CC[C@@H]2[C@](C)(COC(C)=O)[C@@H](O)CC[C@@]2(C)[C@@H]1COc1ccc2ccc(=O)oc2c1`, the GI50 was 31 µM with 786-0 renal; 29.9 µM in the assay on HS 578T breast; more than 100 µM in the assay with KM12 colon; more than 100 µM with LOX IMVI melanoma; more than 100 µM in the assay with MALME-3M melanoma; more than 100 µM in the assay with MDA-MB-435. Further, the GI50 is more than 100 µM in the assay on MOLT-4 leukemia, more than 100 µM in the assay on NCI-H522 lung, 87.4 µM with SR leukemia and more than 100 µM in the assay with T-47D breast. In addition, the TGI with 786-0 renal, in the assay on HS 578T breast, with KM12 colon, in the assay on LOX IMVI melanoma, with MALME-3M melanoma and in the assay on MDA-MB-435 was more than 100 µM each time. Further, the TGI in the assay with MOLT-4 leukemia, in the assay on NCI-H522 lung, in the assay on SR leukemia and in the assay with T-47D breast was more than 100 µM each time.
With `Cc1ccc(NC(=O)/C=C/c2ccccc2)c(C(N)=O)c1`, the GI50 is 6.41 µM in the assay with 786-0 renal; 1.69 µM with HS 578T breast; 2.44 µM in the assay on KM12 colon; 7.87 µM with LOX IMVI melanoma; 5.99 µM in the assay on MALME-3M melanoma; 0.526 µM in the assay with MDA-MB-435. For the same compound, the GI50 in the assay on MOLT-4 leukemia is 3.34 µM; in the assay with NCI-H522 lung, 1.89 µM; with SR leukemia, 0.881 µM; in the assay with T-47D breast, 5.11 µM. In addition, the TGI was 53 µM in the assay on 786-0 renal; 6.63 µM with HS 578T breast; 35.5 µM in the assay with KM12 colon; more than 100 µM in the assay with LOX IMVI melanoma; more than 100 µM in the assay with MALME-3M melanoma; 2.44 µM in the assay on MDA-MB-435. In addition, the TGI in the assay with MOLT-4 leukemia was more than 74.1 µM; in the assay on NCI-H522 lung, 9.06 µM; with SR leukemia, 20.1 µM; in the assay on T-47D breast, more than 74.4 µM.
Turning to `COc1ccc(-c2cc(-c3ccccc3)nc(SCCCC(=O)NO)n2)cc1`, the GI50 in the assay on 786-0 renal is 0.573 µM; in the assay with HS 578T breast it was 1.66 µM; in the assay on KM12 colon it was 1.72 µM; in the assay on LOX IMVI melanoma it was 0.24 µM; in the assay with MALME-3M melanoma, 1 µM; in the assay on MDA-MB-435, 0.995 µM. For the same compound, the GI50 in the assay on MOLT-4 leukemia was 0.758 µM; in the assay with NCI-H522 lung, 0.808 µM; in the assay with SR leukemia it was 0.363 µM; in the assay on T-47D breast, 0.804 µM. The TGI in the assay with 786-0 renal was determined as 3.49 µM; in the assay on HS 578T breast, 9.27 µM; in the assay on KM12 colon, 5.29 µM; in the assay on LOX IMVI melanoma, 1.95 µM; with MALME-3M melanoma, 4.82 µM; in the assay with MDA-MB-435, 3.11 µM. The TGI in the assay with MOLT-4 leukemia is 10.9 µM; with NCI-H522 lung, 4.32 µM; in the assay with SR leukemia, more than 33.3 µM; in the assay with T-47D breast, 15.1 µM.
Take `CCCCNCC(=O)O[C@]1(CC)C(=O)OCc2c1cc1n(c2=O)Cc2cc3ccccc3nc2-1`: the TGI was 0.946 µM in the assay with 786-0 renal; more than 100 µM in the assay with HS 578T breast; 6.55 µM in the assay with KM12 colon; 1.43 µM in the assay with LOX IMVI melanoma; 30.5 µM in the assay with MALME-3M melanoma; 11.3 µM with MDA-MB-435. Also, the TGI worked out at 0.232 µM in the assay on MOLT-4 leukemia, 4.82 µM in the assay on NCI-H522 lung, 0.0355 µM in the assay on SR leukemia and 2.44 µM in the assay with T-47D breast.
